Experimental data taken from the NIST ThermoML archive (doi:10.1016/j.fluid.2010.10.028).

Test: xn = mol fraction of the nth substance listed
Conditions: Liquid, Vibrating tube method

CC(C)=O [acetone] + CCCCCCC
Conditions | mass density [kg/m3]
347.61 K, 99820 kPa, x1 = 0.7024 | 766.18
347.61 K, 104810 kPa, x1 = 0.7024 | 768.98
347.61 K, 109800 kPa, x1 = 0.7024 | 771.73
347.61 K, 114810 kPa, x1 = 0.7024 | 774.41
347.61 K, 119820 kPa, x1 = 0.7024 | 777.02
347.61 K, 124830 kPa, x1 = 0.7024 | 779.56
347.61 K, 129810 kPa, x1 = 0.7024 | 782.01
347.62 K, 1020 kPa, x1 = 0.801 | 689
347.62 K, 1220 kPa, x1 = 0.4 | 705.05
347.62 K, 1220 kPa, x1 = 0.8992 | 705.05
347.62 K, 4860 kPa, x1 = 0.801 | 695.13
347.62 K, 5030 kPa, x1 = 0.4 | 711.05
347.62 K, 5030 kPa, x1 = 0.8992 | 711.05
347.62 K, 9870 kPa, x1 = 0.801 | 702.45
347.62 K, 10010 kPa, x1 = 0.4 | 718.22
347.62 K, 10010 kPa, x1 = 0.8992 | 718.22
347.62 K, 14850 kPa, x1 = 0.801 | 709.08
347.62 K, 15000 kPa, x1 = 0.4 | 724.83
347.62 K, 15000 kPa, x1 = 0.8992 | 724.83
347.62 K, 19850 kPa, x1 = 0.801 | 715.23
347.62 K, 24850 kPa, x1 = 0.801 | 720.94
347.62 K, 29860 kPa, x1 = 0.801 | 726.31
347.62 K, 34950 kPa, x1 = 0.4 | 746.98
347.62 K, 34950 kPa, x1 = 0.8992 | 746.98
347.62 K, 39850 kPa, x1 = 0.801 | 736.15
347.62 K, 39940 kPa, x1 = 0.4 | 751.76
347.62 K, 39940 kPa, x1 = 0.8992 | 751.76
347.62 K, 44930 kPa, x1 = 0.4 | 756.3
347.62 K, 44930 kPa, x1 = 0.8992 | 756.3
347.62 K, 49910 kPa, x1 = 0.4 | 760.61
347.62 K, 49910 kPa, x1 = 0.8992 | 760.61
347.62 K, 54840 kPa, x1 = 0.801 | 749.08
347.62 K, 54890 kPa, x1 = 0.4 | 764.72
347.62 K, 54890 kPa, x1 = 0.8992 | 764.72
347.62 K, 59880 kPa, x1 = 0.4 | 768.69
347.62 K, 59880 kPa, x1 = 0.8992 | 768.69
347.62 K, 64870 kPa, x1 = 0.4 | 772.47
347.62 K, 64870 kPa, x1 = 0.8992 | 772.47
347.62 K, 69850 kPa, x1 = 0.4 | 776.15
347.62 K, 69850 kPa, x1 = 0.8992 | 776.15
347.62 K, 74830 kPa, x1 = 0.4 | 779.64
347.62 K, 74830 kPa, x1 = 0.8992 | 779.64
347.62 K, 74890 kPa, x1 = 0.801 | 763.9
347.62 K, 79820 kPa, x1 = 0.4 | 783.06
347.62 K, 79820 kPa, x1 = 0.8992 | 783.06
347.62 K, 79870 kPa, x1 = 0.801 | 767.26
347.62 K, 84800 kPa, x1 = 0.4 | 786.42
347.62 K, 84800 kPa, x1 = 0.8992 | 786.42
347.62 K, 89780 kPa, x1 = 0.4 | 789.6
347.62 K, 89780 kPa, x1 = 0.8992 | 789.6
347.62 K, 94760 kPa, x1 = 0.4 | 792.68
347.62 K, 94760 kPa, x1 = 0.8992 | 792.68
347.62 K, 99740 kPa, x1 = 0.4 | 795.68
347.62 K, 99740 kPa, x1 = 0.8992 | 795.68
347.62 K, 99810 kPa, x1 = 0.801 | 779.62
347.62 K, 104710 kPa, x1 = 0.4 | 798.57
347.62 K, 104710 kPa, x1 = 0.8992 | 798.57
347.62 K, 109700 kPa, x1 = 0.4 | 801.41
347.62 K, 109700 kPa, x1 = 0.8992 | 801.41
347.62 K, 114660 kPa, x1 = 0.4 | 804.17
347.62 K, 114660 kPa, x1 = 0.8992 | 804.17
347.62 K, 119630 kPa, x1 = 0.4 | 806.86
347.62 K, 119630 kPa, x1 = 0.8992 | 806.86
347.62 K, 124610 kPa, x1 = 0.4 | 809.5
347.62 K, 124610 kPa, x1 = 0.8992 | 809.5
347.62 K, 124830 kPa, x1 = 0.801 | 793.29
347.62 K, 129570 kPa, x1 = 0.4 | 812.05
347.62 K, 129570 kPa, x1 = 0.8992 | 812.05
347.63 K, 1030 kPa, x1 = 0.492 | 657.71
347.63 K, 1030 kPa, x1 = 0.611 | 666.96
347.63 K, 4850 kPa, x1 = 0.492 | 663.76
347.63 K, 4870 kPa, x1 = 0.611 | 673.09
347.63 K, 9850 kPa, x1 = 0.492 | 670.93
347.63 K, 9870 kPa, x1 = 0.611 | 680.36
347.63 K, 14850 kPa, x1 = 0.492 | 677.45
347.63 K, 19850 kPa, x1 = 0.492 | 683.45
347.63 K, 19980 kPa, x1 = 0.4 | 730.92
347.63 K, 19980 kPa, x1 = 0.8992 | 730.92
347.63 K, 24860 kPa, x1 = 0.492 | 689
347.63 K, 24960 kPa, x1 = 0.4 | 736.6
347.63 K, 24960 kPa, x1 = 0.8992 | 736.6
347.63 K, 29860 kPa, x1 = 0.492 | 694.2
347.63 K, 29960 kPa, x1 = 0.4 | 741.95
347.63 K, 29960 kPa, x1 = 0.8992 | 741.95
347.63 K, 34850 kPa, x1 = 0.492 | 699.05
347.63 K, 34850 kPa, x1 = 0.801 | 731.37
347.63 K, 39860 kPa, x1 = 0.492 | 703.65
347.63 K, 44850 kPa, x1 = 0.801 | 740.65
347.63 K, 44870 kPa, x1 = 0.492 | 708.02
347.63 K, 49830 kPa, x1 = 0.492 | 712.11
347.63 K, 49850 kPa, x1 = 0.801 | 744.95
